According to PMC10818931, “In Vitro Evaluation of Drug–Drug Interaction Potential of Epetraborole, a Novel Bacterial Leucyl-tRNA Synthetase Inhibitor” (Pharmaceuticals, 2024):

Key:
human hepatocytes = assay: Cytotoxicity in hepatocytes; conditions: EBO at 100 µM, M3 at 250 µM
Description: The induction potential of EBO and M3 on CYP1A2, CYP2B6, and 3A4 was evaluated by incubating the test articles with plated human hepatocytes from 3 individual donors (GKJ, ZEY, WKF) in triplicate according to WuXi AppTec (Cranbury, NJ, USA) SOP.

BCRP = target: T1, BCRP (Homo sapiens, UniProt Q9UNQ0); assay: Inhibition of BCRP-mediated efflux transport in BCRP-MDCK cells; type: in vitro ADME
T1 construct: host or cells: MDCK (BCRP-MDCK)
T1 sequence (Q9UNQ0 1-655): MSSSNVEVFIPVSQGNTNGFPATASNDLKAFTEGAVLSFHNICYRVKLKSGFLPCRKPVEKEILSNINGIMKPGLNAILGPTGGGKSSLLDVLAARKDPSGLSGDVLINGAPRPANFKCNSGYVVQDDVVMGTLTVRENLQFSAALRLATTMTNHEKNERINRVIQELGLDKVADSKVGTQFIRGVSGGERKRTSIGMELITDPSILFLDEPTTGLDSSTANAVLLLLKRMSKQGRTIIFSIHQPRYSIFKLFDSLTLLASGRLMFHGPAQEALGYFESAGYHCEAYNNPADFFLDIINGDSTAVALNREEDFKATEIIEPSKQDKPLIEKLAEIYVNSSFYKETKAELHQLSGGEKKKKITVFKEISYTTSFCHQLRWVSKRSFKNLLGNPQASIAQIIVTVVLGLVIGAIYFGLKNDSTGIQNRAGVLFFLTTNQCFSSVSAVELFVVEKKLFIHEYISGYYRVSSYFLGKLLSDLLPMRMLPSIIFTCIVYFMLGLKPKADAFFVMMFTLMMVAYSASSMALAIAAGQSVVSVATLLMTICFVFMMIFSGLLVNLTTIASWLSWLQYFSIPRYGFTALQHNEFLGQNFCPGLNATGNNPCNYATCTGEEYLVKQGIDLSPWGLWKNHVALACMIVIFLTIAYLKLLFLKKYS
Description: A preincubation with EBO or known inhibitor was performed on both sides to preload the cells. After 30 min, the preincubation solution was aspirated. Aliquots of fresh dosing solution with or without EBO or known inhibitor (0.55 mL for AP-to-BL, 1.55 mL for BL-to-AP) were added to the donor compartment, and HBSSg_7.4 with or without EBO or known inhibitor (1.5 mL for AP-to-BL, 0.5 mL for BL-to-AP) were added to the receiver compartment. Receiver samples (200 µL) and donor samples (50 µL) were taken at preselected time points.
Cell monolayer integrity was examined using lucifer yellow (excitation 450 nm and emission 538 nm). The concentrations of the probe substrate in the donor and receiver samples, as well as EBO in dosing solutions, were determined by LC-MS/MS.

OATP1B3 = target: T2, OATP1B3 (Homo sapiens, UniProt Q9NPD5); assay: Uptake transporter inhibition in transfected HEK 293 or MDCK cells; type: in vitro ADME
T2 construct: host or cells: MDCK
T2 sequence (Q9NPD5 1-702): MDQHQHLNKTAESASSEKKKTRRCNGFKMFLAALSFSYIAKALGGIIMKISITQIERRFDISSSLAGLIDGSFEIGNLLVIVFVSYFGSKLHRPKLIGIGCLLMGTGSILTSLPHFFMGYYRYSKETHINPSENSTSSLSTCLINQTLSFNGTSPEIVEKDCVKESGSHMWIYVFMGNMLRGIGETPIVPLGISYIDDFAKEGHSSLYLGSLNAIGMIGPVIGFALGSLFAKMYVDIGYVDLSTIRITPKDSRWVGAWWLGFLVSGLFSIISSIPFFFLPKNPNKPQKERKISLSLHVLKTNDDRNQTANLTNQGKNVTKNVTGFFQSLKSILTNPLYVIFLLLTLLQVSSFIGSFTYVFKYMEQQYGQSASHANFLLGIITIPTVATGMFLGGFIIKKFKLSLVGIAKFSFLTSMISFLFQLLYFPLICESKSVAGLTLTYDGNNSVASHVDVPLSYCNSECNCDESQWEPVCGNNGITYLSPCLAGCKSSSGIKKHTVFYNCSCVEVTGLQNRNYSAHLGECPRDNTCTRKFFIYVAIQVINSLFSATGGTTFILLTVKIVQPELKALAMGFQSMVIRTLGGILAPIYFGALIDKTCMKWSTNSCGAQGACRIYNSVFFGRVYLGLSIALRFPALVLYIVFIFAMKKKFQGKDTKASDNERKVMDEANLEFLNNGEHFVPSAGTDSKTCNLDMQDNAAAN
Description: Cell monolayers were preincubated (37 °C) for 15 to 30 min in a transport medium containing the target concentration of EBO or a specific inhibitor without substrate. Following the removal of preincubation solutions, appropriate working solutions containing EBO at the target concentration plus the probe substrate were added to the wells in triplicate. Separate sets of triplicate wells were designated for probe substrate only and probe substrate plus the specific inhibitors, to determine the maximal uptake rate and maximal inhibition of uptake, respectively. After incubation at 37 °C for each transporter, the working solution was removed from each well and the experiment was stopped by washing three times with cold (4 °C) DPBS. Depending on the substrate label, cells were either lysed for the analysis of total radioactivity (liquid scintillation counter) or LC-MS/MS methods. For measuring relative fluorescence (FLUOstar Galaxy, Cary, NC, USA), cells were not lysed.

MATE2K = target: T3, MATE2K (Homo sapiens, UniProt Q86VL8); assay: Transporter inhibition; type: in vitro ADME; conditions: read-out: as an Inhibitor, IC50
T3 construct: host or cells: MDCK
T3 sequence (Q86VL8 1-566 isoform Q86VL8-3): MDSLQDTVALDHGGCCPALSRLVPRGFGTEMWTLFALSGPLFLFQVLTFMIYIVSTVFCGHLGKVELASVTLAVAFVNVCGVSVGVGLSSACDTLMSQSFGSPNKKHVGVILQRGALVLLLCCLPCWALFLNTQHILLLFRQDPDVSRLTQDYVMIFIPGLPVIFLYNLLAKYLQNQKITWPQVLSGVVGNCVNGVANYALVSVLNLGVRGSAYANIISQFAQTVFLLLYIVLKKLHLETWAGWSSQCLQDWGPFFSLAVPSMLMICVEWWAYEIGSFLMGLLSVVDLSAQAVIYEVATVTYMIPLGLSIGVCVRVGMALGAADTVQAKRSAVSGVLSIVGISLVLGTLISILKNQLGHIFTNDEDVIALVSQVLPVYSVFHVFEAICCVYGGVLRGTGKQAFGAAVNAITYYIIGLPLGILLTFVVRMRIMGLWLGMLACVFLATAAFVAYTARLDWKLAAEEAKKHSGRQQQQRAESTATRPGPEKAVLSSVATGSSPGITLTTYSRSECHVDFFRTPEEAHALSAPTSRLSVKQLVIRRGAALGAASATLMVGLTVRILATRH

[1] = read-out: as an Inhibitor, IC50

SMILES | Cytotoxicity (>20%) (human hepatocytes) | inhibition at 300 µM (BCRP; human, BCRP-MDCK cells, pH 7.4, at 300 μM) [%] | inhibition at 1000 µM (BCRP; human, BCRP-MDCK cells, pH 7.4, at 1000 µM) [%] | inhibition at 500 µM (OATP1B3; human, HEK 293 or MDCK cells transfected with OATP1B3, at 500 µM) [%] | IC50 (MATE2K) [µM] | inhibition at 500 µM (BCRP; human, BCRP-MDCK cells, pH 7.4, at 500 μM) [%] | IC50 (BCRP; [1]) [µM] | IC50 (OATP1B3; [1]) [µM]
NC[C@H]1OB(O)c2c(OCCCO)cccc21 [EBO, Epetraborole] | did not induce cytotoxicity (>20%) | 13 | 27 | 21 | > 100 |  |  | 
NC[C@H]1OB(O)c2c(OCCC(=O)O)cccc21 [M3] | did not induce cytotoxicity (>20%) |  |  |  | > 250 | 44 | > 500 | > 250
